Among the test systems are HCT-116; OVCAR-5; NCI-H226; A498; SN12C; SW-620; KM12; SNB-75; NCI-H522; BT-549; HOP-62; T47D; U-251; PC-3; DU-145; UACC-62; MCF7; LOX IMVI; MDA-N.
What all share (test): DTP human tumour cell line panel, 48 h

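Method: 48-hour compound exposure of cells in 96-well plates, five concentrations, linear interpolation of endpoints. GI50 is the concentration that inhibits growth by half.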 Active and inactive are the calls of the source. Rule as the data show it: active = GI50 up to about 1.1 µM and inactive = higher. Some results are limits rather than exact numbers.

Regarding `O=S(=O)(c1cnccc1N1CCN(CCO)CC1)N1CCCC1`, the GI50 with HCT-116, in the test on OVCAR-5, in the test with NCI-H226, with A498, in the test with SN12C and in the test with SW-620 was > 100 µM (inactive) throughout. Further, the GI50 in the test with KM12, in the test on SNB-75, in the test on NCI-H522, in the test with BT-549, in the test on HOP-62 and in the test with T47D was > 100 µM (inactive) each time. The GI50 with U-251, with PC-3, in the test on DU-145, in the test with UACC-62, in the test with MCF7 and in the test on LOX IMVI was > 100 µM (inactive) in each case. In the test on MDA-N, the GI50 (commonly the concentration giving 50% growth inhibition) is > 100 µM (inactive).

As to `O=C1C=CC(=O)C(CNc2ccc(C(=O)OC34CC5CC(CC(C5)C3)C4)cc2)=C1`, the GI50 in the test on HCT-116 is 10 µM (inactive); with OVCAR-5 it was 15.1 µM (inactive); with NCI-H226, 2 µM (inactive); in the test with A498, 11.7 µM (inactive); in the test on SN12C, 11.3 µM (inactive); in the test on SW-620, 10.5 µM (inactive). In addition, the GI50 in the test with KM12 was 5.94 µM (inactive); in the test on SNB-75 it was 3.39 µM (inactive); in the test on NCI-H522 it was 0.776 µM (active); in the test with BT-549, 5.12 µM (inactive); with HOP-62, 11.4 µM (inactive); in the test on T47D it was 2.49 µM (inactive). In addition, the GI50 in the test with U-251 is 4.06 µM (inactive); in the test on PC-3 it was 6.07 µM (inactive); in the test on DU-145, 19.4 µM (inactive); in the test with UACC-62 it was 5.14 µM (inactive); in the test with MCF7, 3.43 µM (inactive); in the test with LOX IMVI it was 4.57 µM (inactive). Moreover, the GI50 with MDA-N is 4.73 µM (inactive).

In the case of `CC(C)/C(Cl)=N/OC(=O)Nc1ccc(F)c(Cl)c1`, the GI50 in the test with HCT-116 is 2.54 µM (inactive); in the test with OVCAR-5 it was 19.2 µM (inactive); in the test with NCI-H226 it was 16.6 µM (inactive); in the test on A498, 18.2 µM (inactive); in the test with SN12C, 1.76 µM (inactive); in the test on SW-620, 1.92 µM (inactive). Moreover, the GI50 is 16.6 µM (inactive) in the test on KM12; 17.8 µM (inactive) with SNB-75; 1.65 µM (inactive) in the test on NCI-H522; 5.06 µM (inactive) in the test with BT-549; 17.6 µM (inactive) in the test on HOP-62; 5.11 µM (inactive) in the test on T47D. For the same molecule, the GI50 in the test with U-251 was 21.1 µM (inactive); in the test with PC-3, 16.1 µM (inactive); with DU-145, 16.2 µM (inactive); with UACC-62 it was 14.2 µM (inactive); in the test on MCF7, 6.64 µM (inactive); with LOX IMVI, 1.76 µM (inactive). The GI50 in the test with MDA-N is 3.92 µM (inactive).

For the molecule `COc1cc2[nH]c(=O)[nH]c2c2c(C)c[nH]c12`, the GI50 in the test with HCT-116, in the test on OVCAR-5, in the test on NCI-H226, with A498, in the test with SN12C and with SW-620 was > 100 µM (inactive) each time. Also, the GI50 in the test on KM12, in the test with SNB-75, in the test on NCI-H522, in the test with BT-549, in the test on HOP-62 and in the test on T47D was > 100 µM (inactive) each time. Besides, the GI50 with U-251, with PC-3, with DU-145, in the test with UACC-62, with MCF7 and with LOX IMVI was > 100 µM (inactive) each time. For the same molecule, in the test with MDA-N, the GI50 was > 100 µM (inactive).

(Values after ChEMBL document CHEMBL1201862, “PubChem BioAssay data set” (2004).)
